# Source: patent US6350251B1, “Biocidal locks” (Biolink Corporation, priority 2000, dated 2002)
# Columns and labels:
# Candida albicans [1] = conditions: oral isolate of Candida albicans to human buccal epithelial cells; concentration dependent; cited from earlier work
# B. fragilis = conditions: mice, intravenous 0.2 mL of a 20% solution in sterile 5% polyvinyl pyrrolidone; intraperitoneal B. fragilis; cited from earlier work
# E. coli [2] = conditions: mice, intravenous 0.2 mL of a 20% solution in sterile 5% polyvinyl pyrrolidone; intraperitoneal E. coli; cited from earlier work
# blood = assay: Clotting of pig blood in containers holding taurolidine solution with or without ACD-A (Example 1); conditions: pig blood filled up to 30 mL over 5, 10 or 15 mL 0.5% taurolidine in Ringer-lactate, or 5 mL taurolidine solution plus 2 mL ACD-A; inspected after 30 minutes
# Procedure: A 0.5% solution of taurolidine in Ringer-lactate solution (Thomae, Biberach, Germany) was introduced into each of four polyethylene bottles having a 30 mL volume. Filling volumes were 5, 10, and 15 mL. One bottle was filled with 5 mL of the taurolidine solution and 2 mL ACD-A (Fresenius, Bad Homburg, Germany) solution. ACD-A solution is used for the conservation of whole blood and contains per liter: 22.0 grams of sodium citrate dihydrate, 7.3 grams of citric acid and 34.5 grams of glucose monohydrate.
# Blood was collected at a slaughter house from a female pig directly from the slaughter wound into the containers that were then filled up to the 30 mL level. The containers were capped and gently moved to mix blood with the solution. The containers were inspected after 30 minutes. Blood in the containers containing only taurolidine was clotted, but the blood in the container containing the mixture of taurolidine and ACD-A was not clotted.
# [3] = tested on: coagulase negative staphylococcus; assay: Inoculated DIALOCK port/catheter filled with lock solution, flush cultured on blood agar (Example 7); assay type: cell-based; set-up: key to organisms remaining, DIALOCK port flush: TNTC: Too numerous to count; conditions: inoculum 100 cfu/0.1 mL; 2% citrated taurolidine or 5000 U/mL heparin (with preservative); 37° C. for 72 hours
# Procedure: (§1) Clinical blood isolates of coagulase negative staphylococcus, Candida albicans, Staphylococcus aureus, Enterococcus, and Pseudomonas aeruginosa were inoculated into trypticase soy broth and allowed to incubate at 37° C. until the cultures were visibly turbid. Serial dilutions were made to obtain a final cell density of 10 colony forming units (cfu)/0.1 mL for S. aureus, Enterococcus, and Pseudomonas aeruginosa; 5 cfu/0.1 mL for Candida; 100 cfu/0.1 mL for coagulase negative staph. and Enterobacter. From the final dilution, 0.1 mL was instilled into each distal end of a DIALOCK port tube, and the DIALOCK port was incubated at room temperature overnight. After incubation, a regular silicon catheter was placed on the distal end of both sides of each DIALOCK port. A solution of 5000 U/mL of heparin (with preservative) or 2% citrated taurolidine was instilled through the proximal end of the DIALOCK port to fill the DIALOCK port and catheter. The catheter was clamped and the DIALOCK port/catheter was incubated at 37° C. for 72 hours. Following this incubation, both catheters were removed from each DIALOCK port and each was flushed with 0.1 mL of nutrient broth.
# Candida albicans [4] = assay: as above; assay type: cell-based; set-up: key to organisms remaining, DIALOCK port flush: TNTC: Too numerous to count; conditions: inoculum 5 cfu/0.1 mL; 2% citrated taurolidine or 5000 U/mL heparin (with preservative); 37° C. for 72 hours
# Procedure: as §1
# [5] = clinical, bacteriologic outcomes, endotoxemia, organ failure, 28-day mortality rate as end points; cited from earlier work
# Pseudomonas aeruginosa = assay: Inoculated DIALOCK port/catheter filled with lock solution, flush cultured on blood agar (Example 7); assay type: cell-based; set-up: key: TNTC: Too numerous to count; conditions: inoculum 10 cfu/0.1 mL; 2% citrated taurolidine or 5000 U/mL heparin (with preservative); 37° C. for 72 hours
# Procedure: as §1
# Staphylococcus aureus = assay: as above; assay type: cell-based; set-up: key: TNTC: Too numerous to count; conditions: inoculum 10 cfu/0.1 mL; 2% citrated taurolidine or 5000 U/mL heparin (with preservative); 37° C. for 72 hours
# Procedure: as §1
# Enterobacter = assay: as above; assay type: cell-based; set-up: key: TNTC: Too numerous to count; conditions: inoculum 100 cfu/0.1 mL; 2% citrated taurolidine or 5000 U/mL heparin (with preservative); 37° C. for 72 hours
# Procedure: as §1
# Enterococcus = assay: as above; assay type: cell-based; set-up: key: TNTC: Too numerous to count; conditions: inoculum 10 cfu/0.1 mL; 2% citrated taurolidine or 5000 U/mL heparin (with preservative); 37° C. for 72 hours
# Procedure: as §1
# [6] = tested on: Vancomycin-Internediate Susceptibility Staphylococcus A ureus (VISA) and Methicillin-Resistant Staphylococcus Aureus (MRSA); conditions: range of from pH 7.0 to pH 5.0; cited from earlier work
# E. coli [7] = conditions: urine isolate of E. coli to human uroepithelial cells; concentration dependent; cited from earlier work
# S. epidermis = conditions: cited from earlier work
Molecule,microbial anti-adherence activity (Candida albicans [1]),"organisms remaining, Catheter flush [3]","organisms remaining, DIALOCK port flush [3]","organisms remaining, Catheter flush (Candida albicans [4])","organisms remaining, DIALOCK port flush (Candida albicans [4])","organisms remaining, Catheter flush (Pseudomonas aeruginosa)","organisms remaining, DIALOCK port flush (Pseudomonas aeruginosa)","organisms remaining, Catheter flush (Staphylococcus aureus)","organisms remaining, DIALOCK port flush (Staphylococcus aureus)","organisms remaining, Catheter flush (Enterobacter)","organisms remaining, DIALOCK port flush (Enterobacter)","organisms remaining, Catheter flush (Enterococcus)","organisms remaining, DIALOCK port flush (Enterococcus)",microbial anti-adherence activity (E. coli [7]),also measured
"O=S1(=O)CCN(CN2CCS(=O)(=O)NC2)CN1 [taurolidine, bis-(1,1-dioxo-perhydroxy-1,2,4-thiadiazin-4-yl)methane]",significant anti-adherence activity,No growth,No growth,No growth*,No growth,No growth**,No growth,No growth,No growth,No growth,No growth,No growth,No growth,significant anti-adherence activity,mortality rate (B. fragilis): very significantly reduce the mortality rate; mortality rate (E. coli [2]): very significantly reduce the mortality rate; state of blood in the containers (blood): clotted; therapeutic effect on the outcome of patients with sepsis syndrome [5]: no beneficial therapeutic effect; taurolidine activity versus pH [6]: increases with decreasing pH
[H]/N=C(\N/C(=N/[H])NCCCCCCNC(=N)NC(=N)Nc1ccc(Cl)cc1)Nc1ccc(Cl)cc1 [chlorhexidine],significant anti-adherence activity,,,,,,,,,,,,,significant anti-adherence activity,
povidone-iodine,significant anti-adherence activity,,,,,,,,,,,,,significant anti-adherence activity,
O=C([O-])CN(CCN(CC(=O)[O-])CC(=O)O)CC(=O)O.[Na+].[Na+] [disodium EDTA],,,,,,,,,,,,,,,"concentration shown to be bactericidal (S. epidermis; initial inoculum of 10^3 CFU of staphylococci per mL, in 24 hours): 20 mg/mL"
Heparin,,No growth,TNTC,20 cfu,TNTC,TNTC,TNTC,TNTC,TNTC,TNTC,TNTC,TNTC,TNTC,,inhibition of growth of S. epidermis (S. epidermis; isolate from the catheter of an infected patient): does not inhibit the growth
CN[C@H](CC(C)C)C(=O)N[C@H]1C(=O)N[C@@H](CC(N)=O)C(=O)N[C@H]2C(=O)N[C@H]3C(=O)N[C@H](C(=O)N[C@H](C(=O)O)c4cc(O)cc(O)c4-c4cc3ccc4O)[C@H](O)c3ccc(c(Cl)c3)Oc3cc2cc(c3O[C@@H]2O[C@H](CO)[C@@H](O)[C@H](O)[C@H]2O[C@H]2C[C@](C)(N)[C@H](O)[C@H](C)O2)Oc2ccc(cc2Cl)[C@H]1O [Vancomycin],,,,,,,,,,,,,,,dose found to be bactericidal (S. epidermis; initial inocula of 10^3 CFU/mL): 6.7 µg/mL
